From patent US20030216319A1, “Specific autoimmune reactions against isomerised/optically inverted epitopes: application for treatment of autoimmune diseases” (priority 2000, published 2003)

How the values were obtained:
[1] = test system: immunoaffinity purified RA auto-antibodies; assay: Immuno-blotting of cellulose-bound spot peptides with immunoaffinity purified RA auto-antibodies (Example 5); format: binding, human; settings: IgM RF eluate 1 μg/mL
Protocol: 1. IgG is coupled to CNBr activated Sepharose using the manufacturers instructions (Pharmacia, Upsala, Sweden).
2. The IgG Sepharose is packed in a suitable column (i.e. a disposable DG10 column, BioRad laboratories, Richmond, Calif.). The column is washed with at least 10 column volumes PBS and with 10 column volumes 0.1 M sodium acetate, 0.15 M sodium chloride pH 3.5 and finally equilibrated in PBS.
3. Serum from RA patients is diluted 10 times in PBS and loaded on the column. The column is washed with PBS until the absorbency (OD 280 nm) reaches base-line.
4. Bound RF's are eluted with 0.1 M sodium acetate, 0.15 M sodium chloride pH 3.5.
5. IgM is separated from IgG and IgA by gel-filtration on a Sephadex G-200 column in 0.1 M sodium acetate, 0.15 M sodium chloride pH 3.5.
6. Eluted IgM is diluted in PBS-BT to 1 μg/mL and assayed as described below.
Seven amino-acid peptides extending over the Asn-315 residue were synthesised by spot synthesis using Whatman 540 paper (Maidstone, U.K.), using the previously described procedures (Frank, 1992, Kramer et al 1994). The peptides were automatically prepared using a spot synthesis method (Abimed, Langenfeld, FRG). The following peptides were synthesised, covalently attached via the carboxy-terminus:
The cellulose membrane containing these peptides was incubated with the immunoaffinity purified RA auto-antibodies purified as described above. […]

human immunoglobulin = assay: Homogeneous RIA with 125I-BSA-BS3-Pro-Ser-Glu-γ-Gly-Lys-Gly-Arg-Gly in MS and control sera (Example 9); format: binding
Source text: For this purpose the MBP derived octapeptide Pro-Ser-Glu-γ-Gly-Lys-Gly-Arg-Gly (γL) was manufactured synthetically using standard FMOC chemistry. The peptide was conjugated to bovine serum albumin (BSA) by Bis[sulfosuccinimidyl]suberate (BS^3) according to the manufacturers instructions (Pierce) and iodinated with ^125I using the chloramine T protocol as described in Example 4.
Serum from 9 MS-patients and 8 healthy persons are reacted overnight with ^125I-BSA-BS^3-Pro-Ser-Glu-γ-Gly-Lys-Gly-Arg-Gly followed by precipitation of immune complexes with protein A Sepharose. Serum samples are diluted 1:200 in IMP buffer. The ^125I BSA-BS^3-Pro-Ser-Glu-γ-Gly-Lys-Gly-Arg-Gly tracer is diluted in IMP buffer (to an activity of 100000 CPM/25 μl). Seventy-five μl of diluted serum sample is mixed with 25 μl tracer and 25 μl of either IMP buffer or free (unconjugated/unlabelled) Pro-Ser-Glu-γ-Gly-Lys-Gly-Arg-Gly peptide (in a concentration of […] in IMP buffer) is added to this mixture. This mixture is incubated overnight at 4° C. Protein. A Sepharose (PAS) 20 μl/sample vial is weighed out and washed 3 times with 10 ml IMP washing buffer, and transferred to eppendorf 1.5 ml tubes using a repeater pipette. The PAS is sedimented by centrifugation at 2000 RPM 2 min., and the supernatant is aspirated using a suction device (or a pipette). […]

Substance: His-Gln-Asp-Trp-Leu-Asp-β-Gly... [peptide IV]
- reactivity of purified RA auto-antibodies towards cellulose-bound peptide [1]: strong reactivity

Substance: Pro-Ser-Glu-γ-Gly-Lys-Gly-Arg-Gly
- inhibition of binding of tracer conjugate to human immunoglobulin by free peptide (human immunoglobulin; 25 μl free peptide, 10 μl/mL in IMP buffer): could be specifically inhibited
- % inhibition of immunoglobulin binding by free peptide, MS sera compared to control sera (human immunoglobulin; p=0.008, two-tailed non-parametric t-test): significantly higher
